# Patent US10654917B2, “Antibody molecules and peptide delivery systems for use in alzheimer's disease and related disorders” (TECHNOPHAGE, INVESTIGAÇĀO E DESENVOLVIMENTO EM …, priority 2015, dated 2020)
# Read-outs that look alike come from different tables or passages of the source. Residues, ends and D or L forms follow the SMILES beside them. *: point of attachment. X1 = Cc1nn(CCN(CCN)CCCC(=O)*)c(C)c1CC(=O)O
# Key:
# [1] = Partition coefficient (log Po/w) of radiopeptides; type: physicochemical
# Excerpt: Table 7 lists each peptide's name, isoelectric point (PI), charge (number of positive residues), calculated mass (in Da), and ion found; as well as the name, calculated mass, and found ion for the corresponding conjugate; and also retention times in HPLC and the partition coefficient (log Po/w). These values allowed the determination of the hydrophilic nature of peptides, where pepH1 and pepH4 were identified as the most hydrophilic peptides.
# [2] = Biodistribution of technetium-labelled peptides; type: in vivo, CD1 mice; settings: iv, total radioactivity
# Outline: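 CD1 mice received technetium-labelled peptide (8.5×10^−5 M final labelling concentration, in PBS) by tail-vein iv injection; in a repeat study dose was raised one hundred fold. Organs were dissected, washed, weighed and counted at 5 and 60 min, or 2 and 60 min in the repeat, as % injected activity or per gram tissue.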
smiles,measurement,setting,value
"CC[C@H](C)[C@H](NC(=O)CNC(=O)[C@H](C)NC(=O)CCCN(CCN)CCn1nc(C)c(CC(=O)O)c1C)C(=O)N[C@@H](CC(C)C)C(=O)N[C@@H](CCCCN)C(=O)N[C@@H](CCCNC(=N)N)C(=O)N[C@@H](Cc1c[nH]c2ccccc12)C(=O)O [^99mTc(CO)3-Pz^1-pepH3, metal not drawn] (X1-AGILKRW-OH; C-terminus assumed)",log Po/w of radiopeptides,[1],0.11 ± 0.06
same,tissue uptake at 2 min,"[2]; CD1, blood, 140 ug/mouse, 140 μg/mouse, read-out: injected activity in Blood",8.6 ± 0.9 %ID/g
same,tissue uptake at 1 h,"[2]; CD1, blood, 140 ug/mouse, 140 μg/mouse, 1 hour, read-out: injected activity in Blood",0.43 ± 0.04 %ID/g
same,tissue uptake at 2 min,"[2]; CD1, bone, 140 ug/mouse, 140 μg/mouse, read-out: injected activity in Bone",1.89 ± 0.04 %ID/g
same,tissue uptake at 1 h,"[2]; CD1, bone, 140 ug/mouse, 140 μg/mouse, 1 hour, read-out: injected activity in Bone",0.19 ± 0.01 %ID/g
same,tissue uptake at 2 min,"[2]; CD1, brain, 140 ug/mouse, 140 μg/mouse, read-out: injected activity in Brain",0.31 ± 0.07 %ID/g
same,tissue uptake at 1 h,"[2]; CD1, brain, 140 ug/mouse, 140 μg/mouse, 1 hour, read-out: injected activity in Brain",0.03 ± 0.01 %ID/g
same,tissue uptake at 2 min,"[2]; CD1, heart, 140 ug/mouse, 140 μg/mouse, read-out: injected activity in Heart",2.2 ± 0.3 %ID/g
same,tissue uptake at 1 h,"[2]; CD1, heart, 140 ug/mouse, 140 μg/mouse, 1 hour, read-out: injected activity in Heart",0.14 ± 0.01 %ID/g
same,dose excreted at 1 h,"[2]; CD1, in vivo, 140 ug/mouse, 140 μg/mouse, 1 hour, read-out: Excretion",36 ± 11.2%
same,tissue uptake at 2 min,"[2]; CD1, intestine, 140 ug/mouse, 140 μg/mouse, read-out: injected activity in Intestine",1.4 ± 0.2 %ID/g
same,tissue uptake at 1 h,"[2]; CD1, intestine, 140 ug/mouse, 140 μg/mouse, 1 hour, read-out: injected activity in Intestine",23 ± 7.9 %ID/g
same,tissue uptake at 2 min,"[2]; CD1, kidney, 140 ug/mouse, 140 μg/mouse, read-out: injected activity in Kidney",23.1 ± 3.4 %ID/g
same,tissue uptake at 1 h,"[2]; CD1, kidney, 140 ug/mouse, 140 μg/mouse, 1 hour, read-out: injected activity in Kidney",3.5 ± 0.7 %ID/g
same,tissue uptake at 2 min,"[2]; CD1, liver, 140 ug/mouse, 140 μg/mouse, read-out: injected activity in Liver",18.8 ± 6.1 %ID/g
same,tissue uptake at 1 h,"[2]; CD1, liver, 140 ug/mouse, 140 μg/mouse, 1 hour, read-out: injected activity in Liver",2.3 ± 0.2 %ID/g
same,tissue uptake at 2 min,"[2]; CD1, lung, 140 ug/mouse, 140 μg/mouse, read-out: injected activity in Lung",4.48 ± 0.01 %ID/g
same,tissue uptake at 1 h,"[2]; CD1, lung, 140 ug/mouse, 140 μg/mouse, 1 hour, read-out: injected activity in Lung",0.31 ± 0.03 %ID/g
same,tissue uptake at 2 min,"[2]; CD1, muscle, 140 ug/mouse, 140 μg/mouse, read-out: injected activity in Muscle",1.4 ± 0.2 %ID/g
same,tissue uptake at 1 h,"[2]; CD1, muscle, 140 ug/mouse, 140 μg/mouse, 1 hour, read-out: injected activity in Muscle",0.2 ± 0.1 %ID/g
same,tissue uptake at 2 min,"[2]; CD1, spleen, 140 ug/mouse, 140 μg/mouse, read-out: injected activity in Spleen",1.6 ± 0.4 %ID/g
same,tissue uptake at 1 h,"[2]; CD1, spleen, 140 ug/mouse, 140 μg/mouse, 1 hour, read-out: injected activity in Spleen",0.81 ± 0.01 %ID/g
same,tissue uptake at 2 min,"[2]; CD1, stomach, 140 ug/mouse, 140 μg/mouse, read-out: injected activity in Stomach",1.1 ± 0.2 %ID/g
same,tissue uptake at 1 h,"[2]; CD1, stomach, 140 ug/mouse, 140 μg/mouse, 1 hour, read-out: injected activity in Stomach",5.2 ± 0.7 %ID/g
same,tissue uptake at 5 min,"[2]; mouse, blood, 10 ug, CD1 mice, 5 min, 10 μg, read-out: injected activity in Blood",4.7 ± 0.6 %ID/g
same,tissue uptake at 1 h,"[2]; mouse, blood, 10 ug, CD1 mice, 1 hour, 10 μg, read-out: injected activity in Blood",1.2 ± 0.4 %ID/g
same,tissue uptake at 5 min,"[2]; mouse, bone, 10 ug, CD1 mice, 5 min, 10 μg, read-out: injected activity in Bone",1.2 ± 0.1 %ID/g
same,tissue uptake at 1 h,"[2]; mouse, bone, 10 ug, CD1 mice, 1 hour, 10 μg, read-out: injected activity in Bone",0.26 ± 0.05 %ID/g
same,tissue uptake at 5 min,"[2]; mouse, brain, 10 ug, CD1 mice, 5 min, 10 μg, read-out: injected activity in Brain",0.15 ± 0.02 %ID/g
same,tissue uptake at 1 h,"[2]; mouse, brain, 10 ug, CD1 mice, 1 hour, 10 μg, read-out: injected activity in Brain",0.04 ± 0.01 %ID/g
same,tissue uptake at 5 min,"[2]; mouse, heart, 10 ug, CD1 mice, 5 min, 10 μg, read-out: injected activity in Heart",1.5 ± 0.5 %ID/g
same,tissue uptake at 1 h,"[2]; mouse, heart, 10 ug, CD1 mice, 1 hour, 10 μg, read-out: injected activity in Heart",0.35 ± 0.01 %ID/g
same,percent of injected dose excreted at 5 min,"[2]; mouse, in vivo, 10 ug, CD1 mice, 5 min, 10 μg, read-out: Excretion",19.6 ± 0.3 %ID
same,percent of injected dose excreted at 1 h,"[2]; mouse, in vivo, 10 ug, CD1 mice, 1 hour, 10 μg, read-out: Excretion",10.5 ± 8.6 %ID
same,tissue uptake at 5 min,"[2]; mouse, intestine, 10 ug, CD1 mice, 5 min, 10 μg, read-out: injected activity in Intestine",3 ± 0.3 %ID/g
same,tissue uptake at 1 h,"[2]; mouse, intestine, 10 ug, CD1 mice, 1 hour, 10 μg, read-out: injected activity in Intestine",7.4 ± 0.4 %ID/g
same,tissue uptake at 5 min,"[2]; mouse, kidney, 10 ug, CD1 mice, 5 min, 10 μg, read-out: injected activity in Kidney",11.9 ± 3.8 %ID/g
same,tissue uptake at 1 h,"[2]; mouse, kidney, 10 ug, CD1 mice, 1 hour, 10 μg, read-out: injected activity in Kidney",0.4 ± 2 %ID/g
same,tissue uptake at 5 min,"[2]; mouse, liver, 10 ug, CD1 mice, 5 min, 10 μg, read-out: injected activity in Liver",7.6 ± 0.1 %ID/g
same,tissue uptake at 1 h,"[2]; mouse, liver, 10 ug, CD1 mice, 1 hour, 10 μg, read-out: injected activity in Liver",2.3 ± 0.2 %ID/g
same,tissue uptake at 5 min,"[2]; mouse, lung, 10 ug, CD1 mice, 5 min, 10 μg, read-out: injected activity in Lung",3.7 ± 0.2 %ID/g
same,tissue uptake at 1 h,"[2]; mouse, lung, 10 ug, CD1 mice, 1 hour, 10 μg, read-out: injected activity in Lung",1 ± 0.2 %ID/g
same,tissue uptake at 5 min,"[2]; mouse, muscle, 10 ug, CD1 mice, 5 min, 10 μg, read-out: injected activity in Muscle",1 ± 0.2 %ID/g
same,tissue uptake at 1 h,"[2]; mouse, muscle, 10 ug, CD1 mice, 1 hour, 10 μg, read-out: injected activity in Muscle",0.3 ± 0.1 %ID/g
same,tissue uptake at 5 min,"[2]; mouse, pancreas, 10 ug, CD1 mice, 5 min, 10 μg, read-out: injected activity in Pancreas",1.1 ± 0.1 %ID/g
same,tissue uptake at 1 h,"[2]; mouse, pancreas, 10 ug, CD1 mice, 1 hour, 10 μg, read-out: injected activity in Pancreas",0.5 ± 0.2 %ID/g
same,tissue uptake at 5 min,"[2]; mouse, spleen, 10 ug, CD1 mice, 5 min, 10 μg, read-out: injected activity in Spleen",1.5 ± 0.2 %ID/g
same,tissue uptake at 1 h,"[2]; mouse, spleen, 10 ug, CD1 mice, 1 hour, 10 μg, read-out: injected activity in Spleen",0.81 ± 0.01 %ID/g
same,tissue uptake at 5 min,"[2]; mouse, stomach, 10 ug, CD1 mice, 5 min, 10 μg, read-out: injected activity in Stomach",0.17 ± 0.02 %ID/g
same,tissue uptake at 1 h,"[2]; mouse, stomach, 10 ug, CD1 mice, 1 hour, 10 μg, read-out: injected activity in Stomach",0.4 ± 0.2 %ID/g
